Assay results: ChEMBL document CHEMBL3046287, “Azoxystrobin resistance of French Mycosphaerella graminicola strains assessed by four in vitro bioassays and by screening of G143A substitution” (Crop Prot, 2010)
≈ marks a conversion by molar mass, not a printed value.

Assays:
Format in all cases: functional, organism-based
Zymoseptoria tritici [1] = assay: Antifungal activity against azoxystrobin-resistant Zymoseptoria tritici T0345 carrying cytochrome-b A143 allele assessed as inhibition of spore germination after 2 days at 18 degC by spotting on PDA medium assay; details: T0345, 48 h
Zymoseptoria tritici [2] = assay: Antifungal activity against azoxystrobin-sensitive Zymoseptoria tritici T0468 carrying cytochrome-b G143 allele assessed as fungal growth inhibition after 6 days at 20 degC by microplate without alamar blue assay; details: T0468, 144 h
Zymoseptoria tritici [3] = assay: Antifungal activity against azoxystrobin-sensitive Zymoseptoria tritici T0211 carrying cytochrome-b G143 allele assessed as fungal growth inhibition after 6 days at 20 degC by microplate without alamar blue assay; details: T0211, 144 h
Zymoseptoria tritici [4] = assay: Antifungal activity against azoxystrobin-sensitive Zymoseptoria tritici T0365 carrying cytochrome-b G143 allele assessed as inhibition of spore germination after 2 days at 18 degC by spotting on PDA medium assay; details: T0365, 48 h
Zymoseptoria tritici [5] = assay: Antifungal activity against azoxystrobin-sensitive Zymoseptoria tritici T083 carrying cytochrome-b G143 allele assessed as inhibition of spore germination after 2 days at 18 degC by spotting on PDA medium assay; details: T083, 48 h
Zymoseptoria tritici [6] = assay: Antifungal activity against azoxystrobin-resistant Zymoseptoria tritici T0242 carrying cytochrome-b A143 allele assessed as inhibition of spore germination after 2 days at 18 degC by spotting on PDA medium assay; details: T0242, 48 h
Zymoseptoria tritici [7] = assay: Antifungal activity against azoxystrobin-resistant Zymoseptoria tritici T0485 carrying cytochrome-b A143 allele assessed as inhibition of spore germination after 2 days at 18 degC by spotting on PDA medium assay; details: T0485, 48 h
Zymoseptoria tritici [8] = assay: Antifungal activity against azoxystrobin-resistant Zymoseptoria tritici T0293 carrying cytochrome-b A143 allele assessed as inhibition of spore germination after 2 days at 18 degC by spotting on PDA medium assay; details: T0293, 48 h
Zymoseptoria tritici [9] = assay: Antifungal activity against azoxystrobin-resistant Zymoseptoria tritici T0290 carrying cytochrome-b A143 allele assessed as inhibition of spore germination after 2 days at 18 degC by spotting on PDA medium assay; details: T0290, 48 h
Zymoseptoria tritici [10] = assay: Antifungal activity against azoxystrobin-resistant Zymoseptoria tritici T049 carrying cytochrome-b A143 allele assessed as inhibition of spore germination after 2 days at 18 degC by spotting on PDA medium assay; details: T049, 48 h
Zymoseptoria tritici [11] = assay: Antifungal activity against azoxystrobin-sensitive Zymoseptoria tritici T083 carrying cytochrome-b G143 allele assessed as fungal colony perpendicular diameter changes after 10 days at 18 degC by spotting on PDA medium assay; details: T083, 240 h
Zymoseptoria tritici [12] = assay: Antifungal activity against azoxystrobin-resistant Zymoseptoria tritici T0262 carrying cytochrome-b A143 allele assessed as fungal colony perpendicular diameter changes after 10 days at 18 degC by spotting on PDA medium assay; details: T0262, 240 h
Zymoseptoria tritici [13] = assay: Antifungal activity against azoxystrobin-resistant Zymoseptoria tritici T0254 carrying cytochrome-b A143 allele assessed as fungal colony perpendicular diameter changes after 10 days at 18 degC by spotting on PDA medium assay; details: T0254, 240 h
Zymoseptoria tritici [14] = assay: Antifungal activity against azoxystrobin-resistant Zymoseptoria tritici T0293 carrying cytochrome-b A143 allele assessed as fungal colony perpendicular diameter changes after 10 days at 18 degC by spotting on PDA medium assay; details: T0293, 240 h
Zymoseptoria tritici [15] = assay: Antifungal activity against azoxystrobin-sensitive Zymoseptoria tritici T021 carrying cytochrome-b G143 allele assessed as fungal colony perpendicular diameter changes after 10 days at 18 degC by spotting on PDA medium assay; details: T021, 240 h
Zymoseptoria tritici [16] = assay: Antifungal activity against azoxystrobin-resistant Zymoseptoria tritici T0414 carrying cytochrome-b A143 allele assessed as fungal colony perpendicular diameter changes after 10 days at 18 degC by spotting on PDA medium assay; details: T0414, 240 h
Zymoseptoria tritici [17] = assay: Antifungal activity against azoxystrobin-resistant Zymoseptoria tritici T032 carrying cytochrome-b A143 allele assessed as fungal colony perpendicular diameter changes after 10 days at 18 degC by spotting on PDA medium assay; details: T032, 240 h
Zymoseptoria tritici [18] = assay: Antifungal activity against azoxystrobin-sensitive Zymoseptoria tritici T0464 carrying cytochrome-b G143 allele assessed as inhibition of spore germination after 2 days at 18 degC by spotting on PDA medium assay; details: T0464, 48 h
Zymoseptoria tritici [19] = assay: Antifungal activity against azoxystrobin-sensitive Zymoseptoria tritici IPO323 carrying cytochrome-b G143 allele assessed as inhibition of spore germination after 2 days at 18 degC by spotting on PDA medium assay; details: IPO323, 48 h
Zymoseptoria tritici [20] = assay: Antifungal activity against azoxystrobin-sensitive Zymoseptoria tritici T0460 carrying cytochrome-b G143 allele assessed as inhibition of spore germination after 2 days at 18 degC by spotting on PDA medium assay; details: T0460, 48 h
Zymoseptoria tritici [21] = assay: Antifungal activity against azoxystrobin-sensitive Zymoseptoria tritici T0278 carrying cytochrome-b G143 allele assessed as inhibition of spore germination after 2 days at 18 degC by spotting on PDA medium assay; details: T0278, 48 h
Zymoseptoria tritici [22] = assay: Antifungal activity against azoxystrobin-sensitive Zymoseptoria tritici T0471 carrying cytochrome-b G143 allele assessed as inhibition of spore germination after 2 days at 18 degC by spotting on PDA medium assay; details: T0471, 48 h
Zymoseptoria tritici [23] = assay: Antifungal activity against azoxystrobin-sensitive Zymoseptoria tritici T0213 carrying cytochrome-b G143 allele assessed as fungal growth inhibition after 6 days at 20 degC by microplate without alamar blue assay; details: T0213, 144 h
Zymoseptoria tritici [24] = assay: Antifungal activity against azoxystrobin-sensitive Zymoseptoria tritici T0471 carrying cytochrome-b G143 allele assessed as fungal growth inhibition after 6 days at 20 degC by microplate without alamar blue assay; details: T0471, 144 h
Zymoseptoria tritici [25] = assay: Antifungal activity against azoxystrobin-sensitive Zymoseptoria tritici T0213 carrying cytochrome-b G143 allele assessed as fungal colony perpendicular diameter changes after 10 days at 18 degC by spotting on PDA medium assay; details: T0213, 240 h
Zymoseptoria tritici [26] = assay: Antifungal activity against azoxystrobin-resistant Zymoseptoria tritici T0242 carrying cytochrome-b A143 allele assessed as fungal growth inhibition after 6 days at 20 degC by microplate without alamar blue assay; details: T0242, 144 h
Zymoseptoria tritici [27] = assay: Antifungal activity against azoxystrobin-resistant Zymoseptoria tritici T0290 carrying cytochrome-b A143 allele assessed as fungal growth inhibition after 6 days at 20 degC by microplate without alamar blue assay; details: T0290, 144 h
Zymoseptoria tritici [28] = assay: Antifungal activity against azoxystrobin-sensitive Zymoseptoria tritici T0464 carrying cytochrome-b G143 allele assessed as fungal colony perpendicular diameter changes after 10 days at 18 degC by spotting on PDA medium assay; details: T0464, 240 h
Zymoseptoria tritici [29] = assay: Antifungal activity against azoxystrobin-sensitive Zymoseptoria tritici T0468 carrying cytochrome-b G143 allele assessed as fungal colony perpendicular diameter changes after 10 days at 18 degC by spotting on PDA medium assay; details: T0468, 240 h
Zymoseptoria tritici [30] = assay: Antifungal activity against azoxystrobin-sensitive Zymoseptoria tritici T0473 carrying cytochrome-b G143 allele assessed as fungal colony perpendicular diameter changes after 10 days at 18 degC by spotting on PDA medium assay; details: T0473, 240 h

CO/C=C(/C(=O)OC)c1ccccc1Oc1cc(Oc2ccccc2C#N)ncn1 [AZOXYSTROBIN]
IC50 (Zymoseptoria tritici [1]): 12.6 µg/mL (≈ 31.3 µM)
IC50 (Zymoseptoria tritici [2]): 0.02 µg/mL (≈ 0.0496 µM)
IC50 (Zymoseptoria tritici [3]): 0.02 µg/mL (≈ 0.0496 µM)
IC50 (Zymoseptoria tritici [4]): 0.06 µg/mL (≈ 0.149 µM)
IC50 (Zymoseptoria tritici [5]): 0.08 µg/mL (≈ 0.198 µM)
IC50 (Zymoseptoria tritici [6]): 18.4 µg/mL (≈ 45.7 µM)
IC50 (Zymoseptoria tritici [7]): 14.6 µg/mL (≈ 36.3 µM)
IC50 (Zymoseptoria tritici [8]): 11.4 µg/mL (≈ 28.2 µM)
IC50 (Zymoseptoria tritici [9]): 20.1 µg/mL (≈ 49.8 µM)
IC50 (Zymoseptoria tritici [10]): 11.6 µg/mL (≈ 28.7 µM)
IC50 (Zymoseptoria tritici [11]): 0.22 µg/mL (≈ 0.545 µM)
IC50 (Zymoseptoria tritici [12]): 9.91 µg/mL (≈ 24.6 µM)
IC50 (Zymoseptoria tritici [13]): 10.8 µg/mL (≈ 26.8 µM)
IC50 (Zymoseptoria tritici [14]): 10.2 µg/mL (≈ 25.2 µM)
IC50 (Zymoseptoria tritici [15]): 0.11 µg/mL (≈ 0.273 µM)
IC50 (Zymoseptoria tritici [16]): 11.8 µg/mL (≈ 29.3 µM)
IC50 (Zymoseptoria tritici [17]): 37.8 µg/mL (≈ 93.8 µM)
IC50 (Zymoseptoria tritici [18]): 0.22 µg/mL (≈ 0.545 µM)
IC50 (Zymoseptoria tritici [19]): 0.07 µg/mL (≈ 0.174 µM)
IC50 (Zymoseptoria tritici [20]): 0.13 µg/mL (≈ 0.322 µM)
IC50 (Zymoseptoria tritici [21]): 0.94 µg/mL (≈ 2.33 µM)
IC50 (Zymoseptoria tritici [22]): 0.08 µg/mL (≈ 0.198 µM)
IC50 (Zymoseptoria tritici [23]): 0.03 µg/mL (≈ 0.0744 µM)
IC50 (Zymoseptoria tritici [24]): 0.05 µg/mL (≈ 0.124 µM)
IC50 (Zymoseptoria tritici [25]): 0.11 µg/mL (≈ 0.273 µM)
IC50 (Zymoseptoria tritici [26]): > 100 µg/mL
IC50 (Zymoseptoria tritici [27]): > 100 µg/mL
IC50 (Zymoseptoria tritici [28]): 0.25 µg/mL (≈ 0.62 µM)
IC50 (Zymoseptoria tritici [29]): 0.23 µg/mL (≈ 0.57 µM)
IC50 (Zymoseptoria tritici [30]): 0.13 µg/mL (≈ 0.322 µM)
